Assay: gradient 5% acetonitrile 3 min, to 50% in 2 min, to 85% in 15 min, held 3 min, 100 µL/min
Conditions: column: Zorbax Extend-C18 2.1 x 50 mm; eluents: water / acetonitrile, 0.1% formic acid
How it was run: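 The mobile phases were water and acetonitrile, each with 0.1% formic acid, pumped at 100 μL/min through a Zorbax Extend-C18 column (2.1 × 50 mm, 1.8 μm). Pure standards were injected as mixtures of ~100 molecules and detected by a quadrupole time-of-flight mass spectrometer in positive and negative ionization mode. Retention time came from computationally picked adduct peaks, each inspected by hand.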

Compound: COc1ccc(OC)c(NC(=O)Cn2cccc(-c3nc(-c4ccc(F)cc4)no3)c2=O)c1
- RP-LC retention time: 897 s

Compound: O=c1ccc(N2CCCN(S(=O)(=O)c3ccc(F)c(F)c3)CC2)nn1-c1ccccc1
- RP-LC retention time: 861 s

Compound: O=C(COc1ccc(Cl)cc1Cl)Nc1nc(-c2ccc(F)cc2)cs1
- RP-LC retention time: 1250 s

Compound: CCOc1ccccc1NC(=O)Cn1cnc2nc(N3CCCC(C(=O)NC)C3)sc2c1=O (stereo not given)
- RP-LC retention time: 667 s

Compound: O=C(NCCC1=CCCCC1)C1CCN(c2ccncc2)CC1
- RP-LC retention time: 638 s

Compound: CCOc1ccc(CNC(=O)C2CCCN(c3ccc(=O)n(-c4ccc(C)c(Cl)c4)n3)C2)cc1 (stereo not given)
- RP-LC retention time: 830 s

Compound: Cc1cc(C)cc(Nc2c(C(=O)N3CCOCC3)cnc3nc(C)ccc23)c1
- RP-LC retention time: 604 s

Compound: CCOC(=O)C1=C(CN2CC(C)CC(C)C2)NC(=O)NC1c1ccc(OC)cc1 (stereo not given)
- RP-LC retention time: 653 s

Compound: COc1cc(NC(=O)Nc2cccc(CNC(=O)O[C@H]3CCOC3)c2)ccc1-c1cnco1
- RP-LC retention time: 838 s

Compound: Cc1ccc(-c2noc(-c3nc(Cc4cccc(F)c4)no3)n2)cc1
- RP-LC retention time: 1180 s

Compound: CCc1nc2c(c(=O)n1CC(=O)Nc1cc(C)ccc1OC)CN(Cc1ccccc1)CC2
- RP-LC retention time: 681 s

Compound: Cc1ccc(NC(=O)C2CCN(S(=O)(=O)c3ccc4c(c3)NC(=O)C(C)O4)CC2)c(Cl)c1 (stereo not given)
- RP-LC retention time: 812 s

Compound: Cc1nc(Nc2ccc(F)cn2)sc1C(=O)N1CCN(C2CCCCC2)CC1
- RP-LC retention time: 639 s

Compound: Cc1sc2ccn(CC(C)C)c(=O)c2c1C(=O)NCCN1CCCCC1
- RP-LC retention time: 639 s

Compound: O=c1cc(-c2ccccc2)oc2c(O)c(O)ccc12
- RP-LC retention time: 720 s

Compound: Cc1cc(C)cc(Nc2nc(C)cc(=O)n2CC(=O)Nc2ccc(Br)cc2)c1
- RP-LC retention time: 966 s

Compound: CC(C)c1cccc(N2C=C(C(=O)N3CCCCC3)S(=O)(=O)c3ccccc32)c1
- RP-LC retention time: 1010 s

Compound: COc1cccc(-c2c(C(=O)O)nnn2-c2ccc(OC)c(OC)c2)c1
- RP-LC retention time: 715 s

Compound: CCS(=O)(=O)N1CCC(Cn2c(C)cnc2-c2ccccc2)C1 (stereo not given)
- RP-LC retention time: 576 s

Compound: O=C(NCC1CCCO1)C1CCCN(c2ncnc3c2oc2ccccc23)C1 (stereo not given)
- RP-LC retention time: 656 s

Compound: CCOc1ccc2nc(NC(=O)C3CCN(C(=O)C4Sc5ccccc5NC4=O)CC3)sc2c1 (stereo not given)
- RP-LC retention time: 826 s

Compound: COc1ccc(-c2cc(C(=O)Nc3cc(Cl)ccc3C)no2)cc1
- RP-LC retention time: 1150 s

Compound: CCc1c(C)nc2ncnn2c1N1CCOCC1
- RP-LC retention time: 653 s

Compound: COc1cccc(CN2CCn3c(nnc3[C@@H]3C[C@@H](O)CN3Cc3cccnc3)C2)c1OC
- RP-LC retention time: 573 s

Compound: CC(C)C(=O)Nc1cc2c(cc1S(=O)(=O)c1ccccc1)n(C)c(=O)n2C
- RP-LC retention time: 772 s

Compound: COCCCNC(=O)C1CCN(C(=O)c2cc3oc(C)cc3n2Cc2c(F)cccc2Cl)CC1
- RP-LC retention time: 826 s

Compound: COc1ccc2c(c1)C1(CCN(C(=O)NCCc3ccccc3)C1)C(=O)N2 (stereo not given)
- RP-LC retention time: 750 s

Compound: Cc1ccc(NC(=O)C2CCN(C(=O)C3Sc4ccccc4NC3=O)CC2)cc1C (stereo not given)
- RP-LC retention time: 818 s

Compound: CCOc1cc(=O)c(C(N)=O)nn1-c1ccc(F)cc1
- RP-LC retention time: 622 s

Compound: Cc1ccnc(N2CCCC(C(=O)NCCN(CCc3ccccc3)Cc3ccco3)C2)n1 (stereo not given)
- RP-LC retention time: 671 s

Compound: CCOc1ccc(S(=O)(=O)N2CCC(C(=O)Nc3ccc(OC)cc3OC)CC2)cc1C
- RP-LC retention time: 1010 s

Compound: CC1(C)CC(=O)c2c(O)cc(OCC(=O)N3CCN(c4ccc(Cl)cc4)CC3)cc2O1
- RP-LC retention time: 1050 s

Compound: COCCCNC(=O)c1cc(-c2ccc(OC)cc2)nc2n[nH]c(-c3ccc(OC)cc3)c12
- RP-LC retention time: 1140 s

Compound: CCOc1ncccc1CNC(=O)C1CCC1
- RP-LC retention time: 696 s

Compound: CCN1CCN(CCNC(=O)C2CCCN(C(=O)c3[nH]c(C)c(C(=O)OC(C)C)c3C)C2)CC1 (stereo not given)
- RP-LC retention time: 596 s

Compound: CN(CCc1noc(-c2ccc(C(=O)N3CCCCC3)cc2)n1)C(=O)c1ccc2c(c1)OCO2
- RP-LC retention time: 779 s

Compound: CC1CCN(S(=O)(=O)c2ccc3c(c2)CCCC(=O)N3CC(=O)NC2CCCC2)CC1
- RP-LC retention time: 874 s

Compound: CC(C)N1C(=O)c2cccnc2Sc2cc(NC(=O)C3CCCCC3)ccc21
- RP-LC retention time: 920 s

Compound: O=C(Nc1cccc(F)c1)C1CC(=O)N(CCc2c[nH]c3ccc(Cl)cc23)C1 (stereo not given)
- RP-LC retention time: 844 s

Compound: CCc1noc(NC(C)=O)c1-c1ccc(C)c(S(=O)(=O)N2CCCCCC2)c1
- RP-LC retention time: 926 s

Compound: COc1ccc(NC(=O)Cn2c(=O)n(-c3ccccc3)c3ncccc32)cc1OC
- RP-LC retention time: 729 s

Compound: Cc1ccc(CNC(=O)Cn2nc3cc(-c4ccccc4)nc(C)n3c2=O)cc1
- RP-LC retention time: 930 s

Compound: COc1cccc(-n2c(N3CCCC(C(=O)NCC4CC4)C3)nc3ccsc3c2=O)c1 (stereo not given)
- RP-LC retention time: 771 s

Compound: COCCN1CCC(N2CCCN(C(=O)C3COc4ccccc4O3)CC2)C1=O (stereo not given)
- RP-LC retention time: 560 s

Compound: CC(NC(=O)C1CCCN(c2nccnc2Sc2ccccc2)C1)c1ccccc1 (stereo not given)
- RP-LC retention time: 1060 s

Compound: COc1ccccc1NC(=O)c1ccc2nc(-c3ccccc3)cn2c1
- RP-LC retention time: 725 s

Compound: COc1cc(Cl)ccc1C(=O)N(CC1CCOC1)C1CC1 (stereo not given)
- RP-LC retention time: 803 s

Compound: Cc1cccc(C(=O)N2CCC3(C2)C(=O)Nc2ccccc23)c1 (stereo not given)
- RP-LC retention time: 734 s

Compound: CCc1nnc(-c2cc(S(=O)(=O)NCCCc3ccccc3)cn2C)o1
- RP-LC retention time: 864 s

Compound: CCN1CCn2cc(S(=O)(=O)N3CCN(c4cccc(Cl)c4)CC3)cc2C1=O
- RP-LC retention time: 872 s

Compound: CCCc1noc(CN2N=C(C(=O)N3CCC(C)CC3)S(=O)(=O)c3ccccc32)n1
- RP-LC retention time: 954 s

Compound: CCN(CC)c1nc2cc(C(=O)OC)ccc2c(=O)n1-c1cc(F)cc(F)c1
- RP-LC retention time: 1180 s

Compound: CCOC(=O)c1noc2nc(C)nc(Nc3ccc(C)c(F)c3)c12
- RP-LC retention time: 1230 s

Compound: c1ccc(-c2csc(Nc3ncccn3)n2)cc1
- RP-LC retention time: 906 s

Compound: O=C(c1cc(-c2ccccc2Cl)nc2ccccc12)N1CCN(c2ccccn2)CC1
- RP-LC retention time: 676 s

Compound: COC(=O)C1CCN(S(=O)(=O)c2cc3c4c(c2)CCC(=O)N4CCC3)CC1
- RP-LC retention time: 724 s

Compound: O=C(Nc1cccc(Cl)c1)C1CCN(S(=O)(=O)c2ccc3[nH]c(=O)ccc3c2)CC1
- RP-LC retention time: 808 s

Compound: COc1ccc(Cl)c2c(=O)c3c([nH]c12)CCN(CC(=O)Nc1ccccc1Cl)C3
- RP-LC retention time: 638 s

Compound: O=C(Cn1cnc2c(nc3n2CCCCC3)c1=O)N1CCN(c2ccc(Cl)cc2)CC1
- RP-LC retention time: 750 s

Compound: COCc1nc(C2CCN(C(=O)C3CC3)C2)no1 (stereo not given)
- RP-LC retention time: 626 s

Compound: O=C([C@@H]1C[C@H](F)CN1S(=O)(=O)c1ccc2c(c1)OCCO2)N1CCCCC1
- RP-LC retention time: 759 s

Compound: Cc1ccc(-c2nc3ccccn3c2NC(=O)Nc2cccc(C)c2)cc1
- RP-LC retention time: 716 s

Compound: CNc1nc(NC(C)C)nc(-n2cnc(SC)n2)n1
- RP-LC retention time: 722 s

Compound: COc1ccc(N2CC(c3nc(-c4cccc(-c5ccnn5C)c4)no3)CC2=O)cc1 (stereo not given)
- RP-LC retention time: 844 s

Compound: CCOc1ccc(NS(=O)(=O)c2ccc3c(c2)CCCC(=O)N3)cc1
- RP-LC retention time: 709 s

From the METLIN SMRT retention time set (Domingo-Almenara et al. 2019)
